Consider four molecules from EP4553077A1 (Kinoteck Therapeutics Co., Ltd, priority 2022, dated 2024).

The target of one data set is Ba/F3-TEL-FGFR1 (Homo sapiens, UniProt P11362+P41212). In words: Cell viability (proliferation inhibition) of Ba/F3 cells, CellTiter Glo. The following applies: read-out: Ba/F3 cell FGFR1 (IC50 nM), 72 h.
Data set [1] can be described thus: Human liver microsomes stability test. It counts as in vitro ADME. The conditions noted are these: human liver microsomes 0.5 mg/mL, compound 1.0 µM. The procedure: Human liver microsomes stability test was performed by co-incubating compounds with human liver microsomes in vitro. Firstly, a 10 mM stock solution of the test compound in DMSO solvent was prepared, and then the compound was diluted with methanol to a 0.15 mM working solution. A certain amount PBS, 12mM MgCl2, human liver microsomes (Corning), and compound working solution were mixed to achieve a compound concentration of 1.0 µM, a human liver microsome concentration of 0.5 mg/mL, and the MgCl2 concentration of 3 mM in the reaction system. A deep well plate was taken, 270 µL microsomal buffer mixture solution was added to each well, and then 30 µL preheated 10 mM NADPH solution was added to initiate the reaction, and it was incubated at 37 °C. At 0, 5, 15, 30, and 60 min of incubation, 200 µL methanol: acetonitrile = 1: 1 containing an internal standard was added to the corresponding well to terminate the reaction. After the reaction was terminated at the last 60 min, the deep well plate was subjected to vortex vibration for 5 min (600 rpm/min), and then centrifugated for 10 min. After centrifugation, the supernatant was taken, and purified water was added at a 1:1 ratio for LC-MS/MS detection, and the peak area ratio of the compound to the internal standard at each time point was obtained, and the peak area ratio of the compound at 5, 15, 30, and 60 min was compared with the peak area ratio at 0 minute to calculate the remaining percentage of the compound at each time point, and T1/2 was calculated using Graphpad 7 software. Table 2 Results of human liver microsomes stability test

The target of another data set is Ba/F3-TEL-FGFR3 (Homo sapiens, UniProt P22607+P41212). Kind of data set: Cell viability (proliferation inhibition) of Ba/F3 cells, CellTiter Glo. The following applies: read-out: Ba/F3 cell FGFR3 (IC50 nM), 72 h. (ATP-based viability assays read luminescence as a measure of living cells.)
Ba/F3-TEL-FGFR3, sequence (P22607 472-761 limits assumed, one chain of several): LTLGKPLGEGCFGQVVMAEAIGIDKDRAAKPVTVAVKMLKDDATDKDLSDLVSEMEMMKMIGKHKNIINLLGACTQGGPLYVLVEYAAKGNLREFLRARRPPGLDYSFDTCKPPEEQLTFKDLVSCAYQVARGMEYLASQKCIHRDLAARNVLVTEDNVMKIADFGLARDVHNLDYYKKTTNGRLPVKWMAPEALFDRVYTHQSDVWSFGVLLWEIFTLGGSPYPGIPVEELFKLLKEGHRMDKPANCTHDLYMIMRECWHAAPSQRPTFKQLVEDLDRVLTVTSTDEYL
Another data set has as its target Ba/F3-TEL-FGFR2 (Homo sapiens, UniProt P21802+P41212). The description is as above. The conditions noted are these: read-out: Ba/F3 cell FGFR2 (IC50 nM), 72 h.
For a further data set, the target named is T1, CYP1A2 (Homo sapiens, UniProt P05177).
T1 sequence (P05177 1-516): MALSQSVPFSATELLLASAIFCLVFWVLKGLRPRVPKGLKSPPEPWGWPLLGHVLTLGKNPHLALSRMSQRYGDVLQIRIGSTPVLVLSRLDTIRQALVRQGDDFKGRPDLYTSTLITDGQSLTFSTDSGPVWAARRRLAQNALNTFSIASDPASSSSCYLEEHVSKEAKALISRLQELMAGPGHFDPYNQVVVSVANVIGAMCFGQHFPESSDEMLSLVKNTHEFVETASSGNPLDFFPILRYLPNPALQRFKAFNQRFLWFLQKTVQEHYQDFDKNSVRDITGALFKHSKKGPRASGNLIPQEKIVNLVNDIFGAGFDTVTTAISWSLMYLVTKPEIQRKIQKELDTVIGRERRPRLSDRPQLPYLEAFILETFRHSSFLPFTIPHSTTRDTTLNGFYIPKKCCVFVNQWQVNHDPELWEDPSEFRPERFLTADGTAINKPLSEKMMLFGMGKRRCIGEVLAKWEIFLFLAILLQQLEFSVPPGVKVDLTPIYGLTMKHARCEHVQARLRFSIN
In words: Cytochrome P450 inhibition in human liver microsomes. A general note: Microsomes from liver hold many membrane-bound enzymes, among them those of drug oxidation.

For the next data set, the target named is CYP3A4 (Homo sapiens, UniProt P08684). Described as above.
CYP3A4, sequence (P08684 whole entry): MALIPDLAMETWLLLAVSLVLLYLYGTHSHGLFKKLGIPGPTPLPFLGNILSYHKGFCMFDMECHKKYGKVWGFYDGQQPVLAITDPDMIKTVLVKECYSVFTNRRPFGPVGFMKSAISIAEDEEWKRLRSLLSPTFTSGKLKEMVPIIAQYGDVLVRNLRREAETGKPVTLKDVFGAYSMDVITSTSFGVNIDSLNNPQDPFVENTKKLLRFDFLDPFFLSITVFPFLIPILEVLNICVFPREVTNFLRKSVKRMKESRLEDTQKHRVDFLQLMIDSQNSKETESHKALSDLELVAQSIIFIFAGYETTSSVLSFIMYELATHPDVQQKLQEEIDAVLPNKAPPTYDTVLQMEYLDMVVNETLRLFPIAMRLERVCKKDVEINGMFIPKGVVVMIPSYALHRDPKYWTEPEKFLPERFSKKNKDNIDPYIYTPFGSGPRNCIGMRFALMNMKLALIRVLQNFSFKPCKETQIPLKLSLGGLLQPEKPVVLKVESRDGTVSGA
A short description of data set [2]: Pharmacokinetic test in rats. The following applies: rat, plasma, oral gavage administration, 10 mg/kg. It counts as in vivo, male SD rats. The procedure: Rat pharmacokinetic experiments were performed using male SD rats, 180-220g, provided by Beijing Vital River Laboratory Animal Technology Co., Ltd. 3 rats that were fasted overnight were taken, and administered orally by gavage (10 mg/kg). Blood samples were collected before administration, as well as 5, 15, 30 min and 1, 2, 4, 6, 8, 24 h after administration; another 3 rats were taken and administered intravenously (1 mg/kg), blood samples were collected before administration, as well as 5, 15, 30 min and 1, 2, 4, 6, 8, 24 h after administration. Blood sample was centrifuged at 6800g, 2-8 °C for 6 min, and plasma was collected, and stored at -80 °C. Plasma of each time point was taken, 10 times the amount of 50% methanol acetonitrile solution containing internal standard was added, and mixed by vortex for 5 min, centrifuged at 18000 rpm at 4 °C for 10 min, and the supernatant was taken directly for LC-MS/MS analysis. The main pharmacokinetic parameters were analyzed using WinNonlin8.2 software for non compartmental model analysis. Table 3: pharmacokinetic test in rats results of test compounds

For a further data set, the target named is CYP2D6 (Homo sapiens, UniProt P10635). In words: Cytochrome P450 inhibition in human liver microsomes.
CYP2D6, sequence (P10635 whole entry): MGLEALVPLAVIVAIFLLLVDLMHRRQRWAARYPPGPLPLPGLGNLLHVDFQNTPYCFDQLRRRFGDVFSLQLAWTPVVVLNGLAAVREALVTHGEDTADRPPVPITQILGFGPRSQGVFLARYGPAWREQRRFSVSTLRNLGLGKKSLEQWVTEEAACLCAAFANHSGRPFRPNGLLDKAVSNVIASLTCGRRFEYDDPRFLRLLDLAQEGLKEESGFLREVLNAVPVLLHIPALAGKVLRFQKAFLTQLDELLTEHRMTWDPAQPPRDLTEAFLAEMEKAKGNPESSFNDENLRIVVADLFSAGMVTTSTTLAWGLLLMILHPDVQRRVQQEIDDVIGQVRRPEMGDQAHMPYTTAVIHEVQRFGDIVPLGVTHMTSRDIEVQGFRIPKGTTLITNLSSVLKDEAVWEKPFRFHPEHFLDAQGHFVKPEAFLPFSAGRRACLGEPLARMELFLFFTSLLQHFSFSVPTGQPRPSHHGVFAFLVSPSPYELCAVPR
The nature of data set [3]: Rat liver cells metabolic stability. The following applies: rat liver cells 0.5 × 10^6 cells/mL; for hepatocyte CLint / half-life: hepatocytes; for hepatocyte CLint: read-out: in vitro CLint (µL/min/10^6 cells); for half-life: read-out: in vitro t1/2. Type of data set: in vitro ADME. On the procedure: Test compound and control drug verapamil powder were prepared into […] stock solution using DMSO, and they were diluted with 50% acetonitrile/50% water to 100 µM working solution before use.
• 1) 49.5 mL Williams E Medium and 0.5 mL glutaMAX were mixed as incubation medium. The liver cell resuscitation solution and incubation solution were preheated in a 37 °C water bath for at least 15 min before use. • 2) A tube of liver cells stored at ultra-low temperature was taken and ensured that they remain in a low-temperature frozen state before resuscitation. The liver cells were placed quickly in a 37 °C water bath and shaken gently until all ice crystals were dispersed. • 3) The contents of the liver cells tubes were poured into a centrifuge tube containing 50 mL of resuscitation medium, and they were centrifuged at 100 g for 10 min. After centrifugation, the resuscitation medium was aspirated, and sufficient incubation medium was added to obtain a cell suspension with a cell density of approximately 1.0 × 10^6 cells/mL. • 4) AO/PI staining was used to count liver cells and determine viable cell density, the survival rate of liver cells must be greater than 75%. The liver cell suspension was diluted with incubation medium to a viable cell density of 0.5 × 10^6 cells/mL.
• 1) 198 µL live cell suspension was transferred to a 96 well deep well plate, and the deep well plate was placed on a vortex and preheat in the incubator for 10 min. • 2) 2 µL 100 µM test compound or positive control compound was added to each well for reaction initiation, and the deep well plate was placed back on the incubator vortex. • 3) The incubation plate was placed into the incubator for incubation. 25 µL suspension was taken at 0.5, 15, 30, 60, 90, and 120 min, and 6-fold (150 µL) acetonitrile containing internal standard quencher (100 nM alprazolam, 200 nM caffeine, and 100 nM toluenesulfonylbutamide) was added to a new 96 well plate to terminate the reaction. The plate was vortexed for 5 min and centrifuged at 3220 rpm and 4 °C for 45 min to precipitate the protein. 100 µL of supernatant was transferred to the sample plate, and 100 µL pure water was added and mixed well for UPLC-MS/MS analysis. All incubation systems were conducted in a dual parallel manner.
All data was calculated using Microsoft Excel software. Peak area was detected by extracting ion chromatogram. In vitro half-life (T1/2) and in vitro clearance rate (in µL/min/10^6 cells) of the parent drug were detected by linearly fitting of the natural logarithm of the […] percentage of the parent drug versus time. Table 6 Results of rat liver cell stability test

For the next data set, the target named is CYP2C19 (Homo sapiens, UniProt P33261). In words: Cytochrome P450 inhibition in human liver microsomes.
CYP2C19, sequence (P33261 whole entry): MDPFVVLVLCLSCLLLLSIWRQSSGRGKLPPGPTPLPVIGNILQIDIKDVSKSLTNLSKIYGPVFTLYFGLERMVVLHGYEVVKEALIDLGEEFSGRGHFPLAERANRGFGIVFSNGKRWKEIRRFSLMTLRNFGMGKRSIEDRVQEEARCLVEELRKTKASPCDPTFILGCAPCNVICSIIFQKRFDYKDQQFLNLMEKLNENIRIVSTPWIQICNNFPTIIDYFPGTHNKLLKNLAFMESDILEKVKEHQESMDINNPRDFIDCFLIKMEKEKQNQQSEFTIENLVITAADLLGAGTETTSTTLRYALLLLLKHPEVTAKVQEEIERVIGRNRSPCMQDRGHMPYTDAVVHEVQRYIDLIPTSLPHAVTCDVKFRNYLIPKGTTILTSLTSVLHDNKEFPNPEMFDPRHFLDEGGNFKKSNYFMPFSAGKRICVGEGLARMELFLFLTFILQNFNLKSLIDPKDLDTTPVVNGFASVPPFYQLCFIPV
Another data set deals with hERG (Homo sapiens, UniProt Q12809). Kind of data set: Manual patch clamp, hERG channel current in HEK-293 cells. (Patch clamp records ionic current or voltage across a cell membrane.)
hERG, sequence (Q12809 whole entry): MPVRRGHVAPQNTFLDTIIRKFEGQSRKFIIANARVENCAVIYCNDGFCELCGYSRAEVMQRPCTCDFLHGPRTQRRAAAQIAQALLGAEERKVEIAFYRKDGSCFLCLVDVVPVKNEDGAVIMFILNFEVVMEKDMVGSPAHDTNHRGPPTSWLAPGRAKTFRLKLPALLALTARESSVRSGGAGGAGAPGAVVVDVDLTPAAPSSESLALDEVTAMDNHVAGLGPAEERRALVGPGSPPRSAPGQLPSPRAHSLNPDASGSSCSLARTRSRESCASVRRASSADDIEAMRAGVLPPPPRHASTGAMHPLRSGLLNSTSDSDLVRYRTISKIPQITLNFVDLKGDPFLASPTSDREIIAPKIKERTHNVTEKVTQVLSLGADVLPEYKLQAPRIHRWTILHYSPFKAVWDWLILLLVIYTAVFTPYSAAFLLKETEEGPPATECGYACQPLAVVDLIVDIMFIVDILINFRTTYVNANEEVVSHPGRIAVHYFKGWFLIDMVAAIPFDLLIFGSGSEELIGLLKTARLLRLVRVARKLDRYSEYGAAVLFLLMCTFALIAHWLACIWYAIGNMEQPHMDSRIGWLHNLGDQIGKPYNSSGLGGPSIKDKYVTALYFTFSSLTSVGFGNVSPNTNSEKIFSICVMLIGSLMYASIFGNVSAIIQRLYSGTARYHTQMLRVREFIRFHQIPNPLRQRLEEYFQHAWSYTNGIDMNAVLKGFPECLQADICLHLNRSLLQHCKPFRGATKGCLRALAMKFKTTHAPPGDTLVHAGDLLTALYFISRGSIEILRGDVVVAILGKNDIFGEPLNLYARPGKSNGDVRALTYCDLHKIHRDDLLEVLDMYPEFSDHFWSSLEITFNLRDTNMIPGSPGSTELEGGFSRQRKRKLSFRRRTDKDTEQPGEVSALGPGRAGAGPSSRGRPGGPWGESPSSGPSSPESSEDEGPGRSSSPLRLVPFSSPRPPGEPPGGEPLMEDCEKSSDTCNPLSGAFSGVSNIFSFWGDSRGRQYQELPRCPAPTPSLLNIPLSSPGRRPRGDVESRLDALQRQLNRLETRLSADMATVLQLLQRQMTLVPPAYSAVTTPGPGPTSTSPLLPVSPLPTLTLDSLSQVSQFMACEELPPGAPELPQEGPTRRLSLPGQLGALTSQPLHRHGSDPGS
The target in another data set is CYP2C9 (Homo sapiens, UniProt P11712). Kind of data set: Cytochrome P450 inhibition in human liver microsomes.
CYP2C9, sequence (P11712 whole entry): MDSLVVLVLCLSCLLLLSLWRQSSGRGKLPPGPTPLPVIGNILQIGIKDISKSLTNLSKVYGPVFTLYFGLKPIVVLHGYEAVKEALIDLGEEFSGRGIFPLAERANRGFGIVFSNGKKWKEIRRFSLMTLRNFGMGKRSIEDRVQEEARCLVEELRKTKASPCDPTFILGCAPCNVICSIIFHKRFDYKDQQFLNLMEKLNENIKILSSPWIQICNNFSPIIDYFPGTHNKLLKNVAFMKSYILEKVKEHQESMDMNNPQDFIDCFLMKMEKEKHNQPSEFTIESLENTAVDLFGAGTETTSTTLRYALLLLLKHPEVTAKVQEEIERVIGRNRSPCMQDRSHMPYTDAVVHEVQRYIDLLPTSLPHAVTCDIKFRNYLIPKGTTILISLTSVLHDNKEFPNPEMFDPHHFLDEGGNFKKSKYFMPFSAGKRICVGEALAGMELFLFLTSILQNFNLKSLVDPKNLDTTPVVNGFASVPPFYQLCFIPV
The test system of the next data set is SNU16 cells. Kind of data set: Proliferation inhibition, CCK-8 colorimetric method. The following applies: Homo sapiens, SNU-16, 72 h. It counts as cell-based. The procedure:
(§1) CCK-8 (Bimake/B34304) colorimetric method was used to detect the in vitro proliferation inhibitory effect of compounds on suspended or adherent cells in this experiment. The specific experimental steps were as follows: • 1) Cell plating: SNU16 and A204 tumor cells (cells from Shanghai Institute of Organic Chemistry, Chinese Academy of Sciences) in the logarithmic growth phase were digested and centrifuged for trypan blue counting, and the cells were seeded into a transparent 96 well plate at a density of 4000 cells/100 µ 1/well. […] The test compound and control compound stock solution were diluted with the corresponding culture medium required for cell culture (with or without solvent DMSO) to obtain a series of working solutions, with concentrations of twice the final concentration. The solvent DMSO contents in each concentration group were consistent with that of the solvent control group. The final concentration of A204 cells started at 10 µM and was diluted twice.
(§2) Calculation of cell survival rate: Cell survival rate (%)=[(As-Ac)/(Ab-Ac)] × 100%] (As: experimental well; Ab: Solvent control well; Ac: Blank well).

The next data set deals with A204 cells. The description is as above. It counts as cell-based. The conditions noted are these: Homo sapiens, 72 h. The procedure: as §1, §2

Ba/F3-TEL-FGFR1, sequence (P11362 478-767 limits assumed, one chain of several): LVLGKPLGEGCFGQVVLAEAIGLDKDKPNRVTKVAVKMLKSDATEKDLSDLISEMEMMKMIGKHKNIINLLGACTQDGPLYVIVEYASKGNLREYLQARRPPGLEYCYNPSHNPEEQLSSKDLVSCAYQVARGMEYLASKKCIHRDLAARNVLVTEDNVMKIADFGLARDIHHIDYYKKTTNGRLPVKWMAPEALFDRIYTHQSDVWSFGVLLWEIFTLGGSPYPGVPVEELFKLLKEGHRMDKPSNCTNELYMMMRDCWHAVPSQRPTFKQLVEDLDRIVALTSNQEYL
Ba/F3-TEL-FGFR2, sequence (P21802 481-770 limits assumed, one chain of several): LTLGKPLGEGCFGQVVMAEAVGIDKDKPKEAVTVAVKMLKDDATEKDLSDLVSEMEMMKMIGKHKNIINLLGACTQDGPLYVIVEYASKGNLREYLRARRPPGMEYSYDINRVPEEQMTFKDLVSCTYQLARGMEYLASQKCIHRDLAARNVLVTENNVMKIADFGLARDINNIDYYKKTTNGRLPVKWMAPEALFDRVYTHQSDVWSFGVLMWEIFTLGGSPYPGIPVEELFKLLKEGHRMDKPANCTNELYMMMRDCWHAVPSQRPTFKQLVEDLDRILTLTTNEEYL
Procedure for CYP1A2: (§3) Preparation of positive control inhibitor and compound working solution: 16 µL inhibitor stock solution or compound stock solution for each CYP subtype were taken and added to 24 µL DMSO. Then, they were diluted gradually three times with diluent to obtain different concentrations of test sample/positive control inhibitor working solution (7 concentrations each except for blank)
(§4) Preparation of test sample group working solution: The human liver microsomal working solution was divided into 96 well plates at 796 µL per well, and then 4 µL test sample working solution was added.
(§5) Preparation of positive control group working solution: The human liver microsomal working solution was divided into 96 well plates at 199 µL per well, and then 1 µL positive control inhibitor working solution was added.
(§6) Blank solvent working solution preparation: The human liver microsomal working solution was divided into 96 well plates at 199 µL per well, and then 1 µL DMSO was added.
(§7) (a) 30 µL test sample/positive control inhibitor working solution or 30 µL blank solvent working solution per well were transferred into a 96 well plate, and 15 µL substrate working solution of different enzyme subtypes transferred into each well, and mixed evenly. (b) The above incubation plates and 4 x NADPH working solution were preheated at 37 °C for 5 min. (c) 15 µL preheated 4 × NADPH working solution per well was transferred into the incubation plate, and the reaction initiated, and continued to be incubated at 37 °C.
(§8) (d) After the reaction time was reached, 180 µL termination solution was added to terminate the reaction. […] (f) After centrifugation, 80 µL supernatant was taken and added to 120 µL ultrapure water, and after it was mixed evenly, LC-MS/MS was used to analyze the metabolites of the probe substrate.
Procedure for CYP2C19: as §3, §4, §5, §6, §7, §8
Procedure for CYP2C9: as §3, §4, §5, §6, §7, §8
Procedure for CYP2D6: as §3
(§9) Preparation of liver microsomal working solution: 300 µL human liver microsomes (20.0 mg/mL) was taken and added to 29700 µL PBS and mixed well, and the concentration of the prepared human liver microsomal working solution was 0.200 mg/mL.
(§10) Preparation of 4 x NADPH working solution: A certain weight of NADPH tetrasodium salt was weighted and dissolved to a suitable volume of PBS to obtain NADPH working solution, with a concentration of 8.00 mM.
as §4, §5, §6
(§11) (a) 30 µL test sample/positive control inhibitor working solution or 30 µL blank solvent working solution per well were transferred into a 96 well plate, and 15 µL substrate working solution of different enzyme subtypes transferred into each well, and mixed evenly. (b) The above incubation plates and 4 x NADPH working solution were preheated at 37 °C for 5 min. (c) 15 µL preheated 4 × NADPH working solution per well was transferred into the incubation plate, and the reaction initiated, and continued to be incubated at 37 °C. The incubation time is as follows:
as §8
Procedure for CYP3A4: as §3, §9, §10, §4, §5, §6, §11, §8
Procedure for hERG: The test compound diluents were diluted with extracellular fluid containing 0.5% F68 in sequence to prepare working solutions of 30 µM, 10 µM, 3 µM, 1 µM and 0.3 µM, and 0.3% DMSO was ensured.
The test compound diluents were diluted with extracellular fluid containing 0.5% F68 in sequence to prepare working solutions with concentrations of 30 µM, 10 µM, 3 µM, 1 µM and 0.3 µM, and 0.3% DMSO was ensured.
Cells were inoculated into 6 cm cell culture dishes, with a total of 2.5 × 10^5 cells per dish (final volume: 5 mL). To maintain the electrophysiological activity of cells, the cell density must not exceed 80%.
The voltage stimulation protocol for recording hERG currents using whole cell patch clamp was as follows: when a whole cell seal was formed, the cell membrane voltage was clamped at -80 mV. […] Data was collected repeatedly every 10 s to observe the effect of the drug on hERG tail current. The experimental data was collected by IPA amplifier (Sutter Instrument) and stored in SutterPatch (with Igor Pro) software.
When the hERG current recorded by the whole cell was stabilized, administration began, and each drug concentration acted for about 5 min (or until the current was stabilized), and then the next concentration was detected, multiple concentrations were detected for each test compound. The cover glass covered with cells was placed in the recording bath under an inverted microscope, the blank control solution and the test compound working solution sequentially flowed through the recording bath from low concentration to high concentration using gravity perfusion to act on the cells, liquid exchange was performed using a peristaltic pump during recording. The current of each cell detected in the extracellular fluid without the compound serves as its own control group. Each concentration should be independently tested twice using at least two cells. All electrophysiological tests were performed at room temperature.

What is called CLint scaled is the rate of metabolic loss divided by the concentration. For the molecule `C=C(C)C(=O)Nc1ccc(-c2c(-c3ccc(N=S4(=O)CCCCC4)cc3)c3c(N)ncnc3n2C)cc1` [Compound 4, N-(4-(4-amino-7-methyl-5-(4-(1-oxotetrahydro-2H-1λ^6-thiopyran-1-imino)phenyl) -7H-pyrrolo [2,3-d]pyrimidin-6-yl)phenyl) methacrylamide], the IC50 stood at 2370 nM on Ba/F3-TEL-FGFR1, 3360 nM on Ba/F3-TEL-FGFR3 and 9.9 nM on Ba/F3-TEL-FGFR2. Further, the CLint scaled at 1 µM in [1] was 14.6 mL/min/kg. Also, the half-life at 1 µM in data set [1] amounted to 85.6 min. The “Remaining percentage of compound after 60 min of incubation (%)” value (from here on “Remaining percentage of compound … (%)”) in data set [1] (60 min) worked out at 61.6%.
As a reminder, the AUC(0-t) is the area under the concentration-time curve up to a stated or last time point. A word on the Cmax: it is the peak of the concentration-time curve. The Tmax is the time from dosing to the highest level. The term inhibition denotes the relative decrease from the control value, in per cent. `C=C(C)C(=O)Nc1ccc(-c2c(-c3ccc(N=S4(=O)CCCC4)cc3)c3c(N)ncnc3n2C)c(F)c1` [Compound 24]: the IC50 on Ba/F3-TEL-FGFR1 was 1910 nM. Further, the IC50 against CYP1A2 was > 10 µM. At CYP3A4, this molecule gave an IC50 of 10.7 µM. In data set [2], the AUC(0-t) was found to be 871 ng·h/mL, the Cmax was determined as 270 ng/mL, the Tmax was 15 min and the half-life is 85.8 min. Further, the IC50 at CYP2D6 stood at 14.3 µM. In [3], the hepatocyte CLint is 37.1 µL/min/1e6 cells, the half-life was 37.3 min and the “Remaining percentage of compound … (%)” value was determined as 37.55%. Also, the IC50 at Ba/F3-TEL-FGFR2 turned out to be 2.1 nM. The IC50 at CYP2C19 worked out at 19.4 µM. At hERG, the IC50 is > 10 µM. Further, on hERG (human, hek-293 cells), the inhibition at 0.3 µM is -1.24%, the inhibition at 1 µM came to 7.73%, the inhibition at 3 µM is 10.2% and the inhibition at 10 µM is 32.2%. Also, the inhibition at 30 µM against hERG (human, hek-293 cells) stood at 14.2%. Further, the IC50 against CYP2C9 came to 29 µM.
Regarding `C=C(C)C(=O)Nc1ccc(-c2c(-c3ccc(N=S(=O)(CC)CC)cc3)c3c(N)ncnc3n2C)c(F)c1` [Compound 58], the IC50 is 2030 nM on Ba/F3-TEL-FGFR1; > 10 µM on CYP1A2; > 10 µM on CYP3A4; 9.81 µM at CYP2D6; 442 nM at Ba/F3-TEL-FGFR3; 3 nM at Ba/F3-TEL-FGFR2. The IC50 was found to be 5.42 µM against CYP2C19, 9.52 nM with SNU16 cells, 1270 nM with A204 cells and 29.7 µM at CYP2C9. This molecule also displayed an AUC(0-t) in data set [2] of 1420 ng·h/mL. In data set [2], this molecule registered a Cmax of 604 ng/mL. In addition, the Tmax in data set [2] stood at 30 min. In addition, the half-life in [2] was 191 min.
On to `[2H]C([2H])([2H])n1c(-c2ccc(NC(=O)C(=C)C)cc2F)c(-c2ccc(N=S3(=O)CCCC3)cc2)c2c(N)ncnc21` [Compound 83, N-(4-(4-amino-7-(methyl-d3)-5-(4-(1-oxotetrahydro-1 λ^6-thiophene-1-imino)phenyl)-7H-pyrrolo[2,3-d]pyrimidin-6-yl)-3-fluorophenyl)methacrylamide], for which the IC50 at Ba/F3-TEL-FGFR1 is 661 nM; on CYP1A2 it was > 10 µM; at CYP3A4 it was 11.6 µM; against CYP2D6, 8.77 µM; on Ba/F3-TEL-FGFR3 it was 319 nM; on Ba/F3-TEL-FGFR2, 1.1 nM. The IC50 against CYP2C19 worked out at 14.1 µM; on CYP2C9, 14.4 µM. In addition, the AUC(0-t) in data set [2] turned out to be 1480 ng·h/mL. The Cmax in data set [2] amounted to 414 ng/mL. In addition, the Tmax in data set [2] amounted to 19.8 min. Also, the half-life is 112 min in data set [2] and 37.1 min in data set [3]. For the same molecule, in data set [3], the hepatocyte CLint is 37.3 µL/min/1e6 cells. Further, the “Remaining percentage of compound … (%)” value in data set [3] was found to be 35.86%.
